Reference: patent publication US10774049B2, “PU.1 inhibitors” (Albert Einstein College of Medicine, priority 2016, dated 2020)
Where a name gives a salt, the structure may show the parent alone.

How the values were obtained:
PU.1 URE−/− AML cells [1] = assay: Colony forming capacity and serial replating of PU.1 URE−/− AML cells; assay type: cell-based, murine
Experimental: FIG. 2A-2F. PU.1 inhibition decreases cell growth and increases apoptosis of PU.1^1″ leukemic cells. (A) Chemical structures of heterocyclic diamidines DB1976, DB2115 and DB2313 used in this study. (B) Relative cell viability of URE−/− cells and BAF3 cells after treatment with increasing concentrations of vehicle or small molecules. Cell viability was assessed after 48 h. Data represent means of technical triplicate from one representative experiment; fold change compared to Vehicle is shown. (C) Cell proliferation assay of URE−/− after treatment with DB1976 (n=5), DB2115 (n=3), DB2313 (n=3), of MOLM13 cells (n=3), and THP1 cells (n=3). Cell counting was performed every 24 h during 4 days. Data represent means±SD of technical triplicate from one representative experiment. Forward strand: SEQ ID NO:3, and Reverse strand: SEQ ID NO:4; derived from the λB motif from the murine Ig lambda 2-4 enhancer, a known native PU.1-dependent gene and specific binding site for PU.1. (D) Clonogenic capacities of URE−/− cells after treatment with DB1976 (n=5), DB2115 (n=3) and DB2313 (n=4) in the first plating, and after serial replatings (n=3). Data represent means±SD of technical triplicate from one representative experiment. (E) Apoptotic cells (Annexin-V+Dapi−) fraction in URE−/− cells after 48 h of treatment with DB1976 (n=6), DB2115 (n=6) and DB2313 (n=3). […]

PU.1 URE−/− AML cells [2] = assay: Gene expression (transcriptome) analysis of PU.1 URE−/− AML cells; assay type: cell-based, murine; conditions: by at least 1.2-fold
Experimental: FIG. 3A-3G. Novel inhibitors show on-target PU.1 inhibitory activity. (A) Quantitative RT-PCR analysis of Csf1r, Junb, Sfpi1, E2f1 expression after 72 h (n=6) and, for Csf1r, after 1 h (n=3), 4 h (n=7), 8 h (n=3) and 24 h (n=3) of treatment with the small molecules in URE−/− cells, expression is normalized to GAPDH expression. Data represent means±SD of technical triplicate from one representative experiment; fold change compared to Vehicle is shown. (B) Chromatin immunoprecipitation assay showing PU.1 occupancy on E2f1, Junb, Csf1r promoters after treatment in Umsh cell line (n=5). 10·10^6 cells were collected for each condition after 8 h treatment with a double dose of the small molecules (50 uM for DB1976, 1.4 uM for DB2115 and 660 nM for DB2313) or Vehicle; and processed for ChIP using PU.1 monoclonal antibody. Myogenin was used as a negative control, not regulated by PU.1. Data represent means±SD of technical triplicate from one representative experiment. (C) Cell viability after PU.1 rescue in MOLM13 cells. MOLM13 were transduced with a lentiviral construct expressing either PU.1-GFP (PU.1, black bar) or GFP as a control (empty, white bar), sorted on GFP and plated with DB1976 (n=7), DB2115 (n=8), DB2313 (n=6) or Vehicle. Cell count was performed after 4 days. Data represent means±SD of technical triplicate from one representative experiment; fold change compared to Vehicle is shown. (D-G) Transcriptome analysis of URE−/− cells after 24 h of treatment with DB2313 versus vehicle (n=3). Differentially expressed genes were determined with a fold change at 1.2 and a P value <0.1. (D) Enrichment in genes directly regulated by PU.1 or in genes regulated by the other ETS transcription factors Ets1, Gabpa, Spi-B, Fli-1, using Ingenuity Knowledge Base. The red dotted line represents the significance threshold (−log (P value)>1.3). […] Deregulated gens in PUER cells were analyzed with a FC at 1.5 and P-value <0.05. […] P-value was calculated using the hypergeometric test. […]

PU.1 URE−/− AML cells [3] = assay: Transplantation of in vitro treated PU.1 URE−/− AML cells into sublethally irradiated mice; assay type: in vivo, mouse
Experimental: FIG. 6A-6H. Treatment with PU1 inhibitors increases survival and decreases tumor burden in vivo. (A) Experimental scheme. URE−/− cells were treated in vitro with DB2313 or Vehicle and counted after 2 days of culture. 200·10^3 viable cells per mouse were injected retroorbitally into sublethally irradiated mice. Mice were sacrificed at 6 weeks or used for survival analyses. (B) Kaplan-Meier survival analysis of transplanted mice (x animals for vehicle group, xx for DB2313 group, from 2 independent experiments, p=). (C,D) Spleen and liver weight 6 weeks after transplant (8 animals for vehicle group, 7 for DB2313 group). Data represent means±SD, each mouse is represented by an individual dot. (E) Chimerism of URE−/− cells in the bone marrow 6 weeks after transplant (14 animals per group from 2 independent experiments).
To assess the effect of PU.1 inhibitors on AML in vivo, we treated PU.1 URE^−/− AML cells for 2 days in vitro and injected 2×10^5 viable cells in sublethally irradiated recipient mice (FIG. 6A).

CC(C)NC(=N)c1ccc2nc(-c3ccc(OCc4cccc(COc5ccc(-c6nc7ccc(C(=N)NC(C)C)cc7[nH]6)cc5)c4F)cc3)[nH]c2c1 [DB2313, 3-Bis{4[4(5)-N-isopropylamidinobenzimidazolyl]phenoxymethyl]}-2-fluorobenzene tetrahydrochloride]
clonogenic capacity in serial replating, 4th and higher rounds of plating (PU.1 URE−/− AML cells [1]): complete disruption
clonogenicity in serial replating, second and third rounds of plating (PU.1 URE−/− AML cells [1]): highly significant decrease
number of downregulated probe sets (PU.1 URE−/− AML cells [2]): 781 probe sets
number of upregulated probe sets (PU.1 URE−/− AML cells [2]): 867 probe sets
number of dysregulated transcripts (out of 34,472 total) (PU.1 URE−/− AML cells [2]; 24 h): 1648 transcripts
mean chimerism, AML cell engraftment in the bone marrow (PU.1 URE−/− AML cells [3]; 6 weeks after transplant, vehicle 55%): 33%
splenic mean weight (PU.1 URE−/− AML cells [3]; 6 weeks post transplantation, vehicle 410 mg): 243 mg
liver mean weight (PU.1 URE−/− AML cells [3]; 6 weeks post transplantation, vehicle 2,347 mg): 1,548 mg
median latency (survival of recipient mice) (PU.1 URE−/− AML cells [3]; cells treated 2 days in vitro, vehicle 44 days): 68 days
histology: blast infiltration and disruption of splenic architecture (PU.1 URE−/− AML cells [3]; in comparison to vehicle group): significantly less pronounced effects
infiltration of the liver by leukemic blasts (PU.1 URE−/− AML cells [3]; in comparison to vehicle group): substantially reduced
